Assay results as given in ChEMBL document CHEMBL2073880, “Heterologous expression of various P-glycoproteins in polarized epithelial cells induces directional transport of small (type 1) and bulky (type 2) cationic drugs” (J Pharmacol Exp Ther, 1998).

Experiments:
Assay type in all cases: functional, cell-based
[1] = target: T1, ATP-dependent translocase ABCB1 (Homo sapiens, UniProt P08183); test: TP_TRANSPORTER: transepithelial transport (basal to apical) in MDR1-expressing LLC-PK1 cells; conditions: pig
T1 sequence (P08183 whole entry): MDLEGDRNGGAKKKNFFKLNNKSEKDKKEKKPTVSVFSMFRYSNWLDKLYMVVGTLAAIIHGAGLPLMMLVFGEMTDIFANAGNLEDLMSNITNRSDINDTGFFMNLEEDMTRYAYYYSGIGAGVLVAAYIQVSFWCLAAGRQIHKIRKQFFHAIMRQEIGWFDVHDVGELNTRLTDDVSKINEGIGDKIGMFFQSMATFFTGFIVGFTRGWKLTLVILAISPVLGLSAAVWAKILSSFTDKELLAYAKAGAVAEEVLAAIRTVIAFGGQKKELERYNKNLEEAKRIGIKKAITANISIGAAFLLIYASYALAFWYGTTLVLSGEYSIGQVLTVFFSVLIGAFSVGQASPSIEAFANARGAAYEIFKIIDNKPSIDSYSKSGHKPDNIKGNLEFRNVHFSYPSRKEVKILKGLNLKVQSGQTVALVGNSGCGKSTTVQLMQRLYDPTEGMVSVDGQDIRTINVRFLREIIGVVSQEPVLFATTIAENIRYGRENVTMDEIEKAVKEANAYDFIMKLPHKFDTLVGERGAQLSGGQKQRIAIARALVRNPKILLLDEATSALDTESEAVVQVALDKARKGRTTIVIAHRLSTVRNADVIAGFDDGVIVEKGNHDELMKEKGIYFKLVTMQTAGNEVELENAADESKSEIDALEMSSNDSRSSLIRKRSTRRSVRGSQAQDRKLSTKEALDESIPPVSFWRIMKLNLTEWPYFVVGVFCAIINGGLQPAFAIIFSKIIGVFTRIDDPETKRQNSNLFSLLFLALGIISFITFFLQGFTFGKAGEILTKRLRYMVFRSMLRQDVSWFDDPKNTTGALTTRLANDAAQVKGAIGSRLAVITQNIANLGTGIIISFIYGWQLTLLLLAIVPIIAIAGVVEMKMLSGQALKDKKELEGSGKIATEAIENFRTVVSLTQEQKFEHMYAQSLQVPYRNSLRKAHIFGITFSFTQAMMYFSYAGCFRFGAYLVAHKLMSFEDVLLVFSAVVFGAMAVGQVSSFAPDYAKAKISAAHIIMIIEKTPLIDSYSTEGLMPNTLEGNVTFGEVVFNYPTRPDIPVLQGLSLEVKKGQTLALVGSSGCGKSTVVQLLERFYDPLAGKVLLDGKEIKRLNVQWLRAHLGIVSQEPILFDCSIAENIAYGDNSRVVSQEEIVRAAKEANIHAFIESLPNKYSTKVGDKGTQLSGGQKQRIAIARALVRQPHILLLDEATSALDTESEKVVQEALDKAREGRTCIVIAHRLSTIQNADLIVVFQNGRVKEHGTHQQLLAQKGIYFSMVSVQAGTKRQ

[2] = target: T2, ATP-dependent translocase ABCB1 (Mus musculus, UniProt P21447); test: TP_TRANSPORTER: transepithelial transport (basal to apical) in Mdr1a-expressing LLC-PK1 cells; conditions: pig
T2 sequence (P21447 whole entry): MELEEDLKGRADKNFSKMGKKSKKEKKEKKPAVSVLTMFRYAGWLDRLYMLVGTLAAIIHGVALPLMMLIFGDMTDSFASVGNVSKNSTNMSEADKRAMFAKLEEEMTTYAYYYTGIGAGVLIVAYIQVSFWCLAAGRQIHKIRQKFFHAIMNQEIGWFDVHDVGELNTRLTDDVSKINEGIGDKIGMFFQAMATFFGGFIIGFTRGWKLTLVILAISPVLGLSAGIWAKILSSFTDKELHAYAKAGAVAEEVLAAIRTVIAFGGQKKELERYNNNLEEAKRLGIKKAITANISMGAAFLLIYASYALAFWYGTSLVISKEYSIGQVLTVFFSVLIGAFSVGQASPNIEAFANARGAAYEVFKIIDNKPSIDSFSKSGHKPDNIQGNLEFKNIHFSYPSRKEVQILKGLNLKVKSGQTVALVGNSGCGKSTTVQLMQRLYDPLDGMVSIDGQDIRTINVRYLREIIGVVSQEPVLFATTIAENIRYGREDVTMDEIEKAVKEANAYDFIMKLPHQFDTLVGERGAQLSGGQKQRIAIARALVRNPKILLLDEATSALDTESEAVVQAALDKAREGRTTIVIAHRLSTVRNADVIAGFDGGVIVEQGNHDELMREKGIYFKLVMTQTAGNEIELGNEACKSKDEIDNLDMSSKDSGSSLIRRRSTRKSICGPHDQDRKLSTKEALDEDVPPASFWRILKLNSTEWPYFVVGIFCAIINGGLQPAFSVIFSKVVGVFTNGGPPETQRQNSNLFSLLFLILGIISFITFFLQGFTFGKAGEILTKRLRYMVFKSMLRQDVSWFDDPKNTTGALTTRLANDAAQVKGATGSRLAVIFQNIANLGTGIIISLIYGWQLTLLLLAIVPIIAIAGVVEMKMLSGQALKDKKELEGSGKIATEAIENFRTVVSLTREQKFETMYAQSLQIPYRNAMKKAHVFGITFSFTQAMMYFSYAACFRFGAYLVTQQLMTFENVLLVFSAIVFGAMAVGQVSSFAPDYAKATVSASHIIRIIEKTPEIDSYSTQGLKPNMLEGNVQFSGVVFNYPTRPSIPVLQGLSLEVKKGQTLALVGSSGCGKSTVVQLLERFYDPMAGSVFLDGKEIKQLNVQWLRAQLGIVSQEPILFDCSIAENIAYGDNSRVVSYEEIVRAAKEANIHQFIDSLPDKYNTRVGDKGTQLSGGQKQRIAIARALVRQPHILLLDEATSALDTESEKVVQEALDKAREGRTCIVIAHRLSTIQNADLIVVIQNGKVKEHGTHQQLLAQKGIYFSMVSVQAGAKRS

[3] = target: T3, ATP-dependent translocase ABCB1 (Mus musculus, UniProt P06795); test: TP_TRANSPORTER: transepithelial transport (basal to apical) in Mdr1b-expressing LLC-PK1 cells; conditions: pig
T3 sequence (P06795 whole entry): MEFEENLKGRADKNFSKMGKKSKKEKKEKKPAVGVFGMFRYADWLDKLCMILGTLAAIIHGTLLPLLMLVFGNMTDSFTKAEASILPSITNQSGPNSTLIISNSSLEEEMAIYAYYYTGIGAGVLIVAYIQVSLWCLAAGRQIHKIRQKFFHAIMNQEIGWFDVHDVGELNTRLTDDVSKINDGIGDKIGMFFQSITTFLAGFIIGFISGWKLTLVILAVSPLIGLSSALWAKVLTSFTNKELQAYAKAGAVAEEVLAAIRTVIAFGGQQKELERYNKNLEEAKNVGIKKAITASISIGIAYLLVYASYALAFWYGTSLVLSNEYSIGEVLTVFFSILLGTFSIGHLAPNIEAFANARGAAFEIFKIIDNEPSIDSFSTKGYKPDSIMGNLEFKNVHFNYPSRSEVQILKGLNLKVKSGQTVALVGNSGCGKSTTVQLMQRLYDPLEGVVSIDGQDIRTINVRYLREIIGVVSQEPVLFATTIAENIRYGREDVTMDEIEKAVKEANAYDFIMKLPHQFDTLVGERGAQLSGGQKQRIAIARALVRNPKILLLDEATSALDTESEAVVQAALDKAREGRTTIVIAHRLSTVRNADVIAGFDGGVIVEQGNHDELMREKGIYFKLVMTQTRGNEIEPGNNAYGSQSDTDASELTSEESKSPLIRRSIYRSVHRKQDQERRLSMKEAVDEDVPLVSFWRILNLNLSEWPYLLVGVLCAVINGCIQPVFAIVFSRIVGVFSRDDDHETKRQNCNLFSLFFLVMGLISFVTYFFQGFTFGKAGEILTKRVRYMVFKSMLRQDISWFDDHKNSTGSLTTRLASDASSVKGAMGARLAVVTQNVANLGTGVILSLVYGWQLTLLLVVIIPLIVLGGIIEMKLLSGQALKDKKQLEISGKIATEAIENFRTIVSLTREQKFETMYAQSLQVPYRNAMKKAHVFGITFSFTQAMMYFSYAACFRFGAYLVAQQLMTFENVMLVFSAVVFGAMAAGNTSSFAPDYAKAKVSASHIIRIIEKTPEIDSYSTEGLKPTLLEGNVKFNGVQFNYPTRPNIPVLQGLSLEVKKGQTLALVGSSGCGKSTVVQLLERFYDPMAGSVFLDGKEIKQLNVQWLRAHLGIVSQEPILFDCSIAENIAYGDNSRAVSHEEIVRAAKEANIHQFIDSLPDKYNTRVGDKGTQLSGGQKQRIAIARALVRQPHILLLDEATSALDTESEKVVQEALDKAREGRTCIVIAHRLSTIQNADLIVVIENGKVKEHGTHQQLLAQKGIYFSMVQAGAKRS

[4] = target: T3, ATP-dependent translocase ABCB1; test: TP_TRANSPORTER: inhibition of TBuMA transepithelial transport (basal to apical)(TBuMA: 10 uM, Vinblastine: 2 uM) in Mdr1b-expressing LLC-PK1 cells; conditions: pig, llc-pk1, 2 µM
[5] = target: T2, ATP-dependent translocase ABCB1; test: TP_TRANSPORTER: inhibition of TBuMA transepithelial transport (basal to apical)(TBuMA: 10 uM, Vinblastine: 2 uM) in Mdr1a-expressing LLC-PK1 cells; conditions: pig, llc-pk1, 2 µM
[6] = target: T1, ATP-dependent translocase ABCB1; test: TP_TRANSPORTER: inhibition of TBuMA transepithelial transport (basal to apical)(TBuMA: 10 uM, Vinblastine: 2 uM) in MDR1-expressing LLC-PK1 cells; conditions: pig, llc-pk1, 2 µM

Row | Activity [1] | Activity [2] | Activity [3] | Activity [4] | Activity [5] | Activity [6] | Compound
1 | substrate [+] | substrate [+] | – | – | – | – | CC[N+](C)(CC)CCNC(=O)c1ccc(N=[N+]=[N-])cc1.[I-] [AZIDOPROCAINAMIDE METHOIODIDE]
2 | substrate [+] | substrate [+] | substrate [+] | – | – | – | CCCC[N+](C)(CCCC)CCCC [TRIBUTYLMETHYLAMMONIUM]
3 | substrate [+] | substrate [+] | substrate [+] | – | – | – | CC(=O)O[C@H]1C[C@@H]2CC[C@@H]3[C@H](CC[C@@]4(C)[C@H]3C[C@H]([N+]3(C)CCCCC3)[C@@H]4OC(C)=O)[C@@]2(C)C[C@@H]1N1CCCCC1 [VECURONIUM]
4 | – | substrate [+] | substrate [+] | inhibitor [+] | inhibitor [+] | inhibitor [+] | CC[C@]1(O)C[C@@H]2CN(CCc3c([nH]c4ccccc34)[C@@](C(=O)OC)(c3cc4c(cc3OC)N(C)[C@H]3[C@@](O)(C(=O)OC)[C@H](OC(C)=O)[C@]5(CC)C=CCN6CC[C@]43[C@@H]65)C2)C1 [VINBLASTINE]
